Measurements: US20140296153A1, “Oligodendrocyte Differentiation” (priority 2011, published 2014)

What was measured:
OPC = conditions: cited from earlier work
SVZ cells [1] = assay: Single cell calcium imaging (SCCI) of oligodendrocytic differentiation; format: cell-based, mouse; conditions: AM251 1 μM co-treated with Hp 1 μM, 7 days, 8 coverslips
Description: To investigate the influence of Hp on oligodendrocytic differentiation, SVZ neurospheres were allowed to develop for 7 days Hp (100 nm, 1 μM), in serum free medium devoid of growth factor at 37° C.
To determine the functional differentiation pattern of SVZ cells, we analyzed the variations of intracellular calcium-free levels ([Ca^2+]i) in single cells following stimulation with 50 mM KCl, 100 μM histamine (Sigma-Aldrich, St. Louis, Mo. USA) and 0.1 U/ml thrombin (Sigma-Aldrich) stimulation. KCl depolarization causes an increase in [Ca^2+]i in neurons, whereas stimulation with histamine leads to an increase in [Ca^2+]i in stem/progenitor cells, while thrombin leads to an increase in [Ca^2+]i in oligodendrocytes. SVZ cultures were loaded for 40 minutes with 5 μM Fura—2/AM (Molecular Probes, Carlsbad, Calif., USA), 0.1% fatty acid-free BSA, and 0.02% pluronic acid F-127 (Molecular Probes) in Krebs solution (132 mM NaCl, 4 mM KCl, 1.4 mM MgCl2, 1 mM CaCl2, 6 mM glucose, 10 mM HEPES, pH 7.4), in an incubator with 5% CO2 and 95% atmospheric air at 37° C. After a 10-minute postloading period at room temperature (RT) in the same medium without Fura-2/AM and pluronic acid, to obtain a complete hydrolysis of the probe, the glass coverslip was mounted on an RC-20 chamber in a PH3 platform (Warner Instruments, Hamden, Conn., USA) on the stage of an inverted fluorescence microscope (Axiovert 200, Carl Zeiss). […] The variations of [Ca^2+]i were evaluated by quantifying the ratio of the fluorescence emitted at 510 nm following alternate excitation (750 msec) at 340 and 380 nm, using a Lambda DG4 apparatus (Sutter Instrument, Novato, Calif., USA) and a 510 nm band-pass filter (Carl Zeiss) before fluorescence acquisition with a x40 objective and a CoolSNAP digital camera (Roper Scientific, Trenton, N.J., USA). […] KCl, histamine, and thrombin peaks given by the normalized ratios of fluorescence at 340/380 nm, at the proper time periods, were used to calculate the ratios of the responses to histamine/KCl (Hist/KCl-neuronal-like profile) and to thrombin/histamine (Throm/Hist-oligodendrocytic-like profile).
Fluorescence images were recorded using an LSM 510 Meta confocal microscope or an Axioskop 2 Plus fluorescence microscope (both from Carl Zeiss). […] Percentages of TUNEL or BrdU immunoreactive cells in SVZ cell cultures were calculated from cell counts in five independent microscopic fields in each coverslip with a x40 objective (approximately 200 cells per field). […] For SCCl experiments, the percentage of oligodendrocytic-like responding cells (with a Thromb/Hist ratio above 1.3) was calculated on the basis of one microscopic field per coverslip, containing approximately 100 cells (magnification, ×40). […]

SVZ cells [2] = assay: SVZ neurosphere forming assay (primary neurospheres); format: cell-based, mouse; conditions: HGF 50 ng.ml^−1, 6 days, SFM with 5 ng/ml EGF and 2.5 ng/ml FGF-2
Description: Neurosphere forming and self-renewal assays were performed on SVZ cells seeded at clonal density, 2500 cells per well in 24-well cell culture plates in SFM containing 5 ng/ml EGF and 2.5 ng/ml FGF-2 and supplemented or not (control) with 1 μM Hp or 50 ng.ml^−1 hepatocyte growth factor (carrier free recombinant human HGF, R&D Systems, Lille, France). After 6 days, the numbers of primary neurospheres were determined. For self-renewal assay, neurospheres were collected, dissociated as single cells and seeded in SFM containing 5 ng/ml EGF and 2.5 ng/ml FGF-2 in 24 well plates. After 6 days, the number of secondary neurospheres was counted.
Fluorescence images were recorded using an LSM 510 Meta confocal microscope or an Axioskop 2 Plus fluorescence microscope (both from Carl Zeiss). In all experiments, measurements were performed in the border of SVZ neurospheres where migrating cells form a cell monolayer. For the SVZ neurosphere forming and self-renewal assays the experiments were replicated in five independent culture preparations and each experimental condition was assayed in four different coverslips. For the remaining experiments, each condition was assayed in three different coverslips, and except where otherwise specified, the experiments were replicated in three independent culture preparations. Percentages of TUNEL or BrdU immunoreactive cells in SVZ cell cultures were calculated from cell counts in five independent microscopic fields in each coverslip with a x40 objective (approximately 200 cells per field). Software used was Axiovision, release 4.6 (Carl Zeiss). For SCCl experiments, the percentage of oligodendrocytic-like responding cells (with a Thromb/Hist ratio above 1.3) was calculated on the basis of one microscopic field per coverslip, containing approximately 100 cells (magnification, ×40).
Neural stem-like cells are characterized in vitro by both their capacity to give rise to neurospheres and to self-renew when cultured in the presence of mitogens.

SVZ cells [3] = assay: SVZ self-renewal assay (secondary neurospheres); format: cell-based, mouse; conditions: primary neurospheres exposed to HGF 50 ng.ml^−1 for 6 days, replated without HGF
[4] = administered to rats; cited from earlier work
CB1R = CB1R (Homo sapiens, UniProt P21554); conditions: cited from earlier work
CB1R, sequence (P21554 whole entry): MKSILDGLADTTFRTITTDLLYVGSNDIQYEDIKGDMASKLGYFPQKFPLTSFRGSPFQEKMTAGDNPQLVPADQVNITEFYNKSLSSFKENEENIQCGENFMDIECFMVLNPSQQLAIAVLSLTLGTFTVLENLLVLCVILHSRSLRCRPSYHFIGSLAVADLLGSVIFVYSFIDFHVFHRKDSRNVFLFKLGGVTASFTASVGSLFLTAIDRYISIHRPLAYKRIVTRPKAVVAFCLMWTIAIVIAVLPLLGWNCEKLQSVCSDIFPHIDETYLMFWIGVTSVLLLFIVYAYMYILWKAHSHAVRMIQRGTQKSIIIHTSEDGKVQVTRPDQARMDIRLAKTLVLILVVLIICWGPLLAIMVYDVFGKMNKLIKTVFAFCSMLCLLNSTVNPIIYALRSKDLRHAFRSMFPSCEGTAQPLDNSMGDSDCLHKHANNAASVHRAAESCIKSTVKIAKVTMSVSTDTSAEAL

## COc1ccc(C(=O)c2c(C)n(CCN3CCOCC3)c3cc(I)ccc23)cc1 [AM630]
OPC
  OPC differentiation into mature oligodendrocytes: do not induce but impair

## Cc1c(C(=O)NN2CCCCC2)nn(-c2ccc(Cl)cc2Cl)c1-c1ccc(I)cc1 [Am 251, reference compound]
SVZ cells [1]
  cells responding with a Throm/Hist ratio above 1.3 (oligodendrocyte-like responding cells): 1.07±0.24%

## Cc1c(C(=O)NN2CCCCC2)nn(-c2ccc(Cl)cc2Cl)c1-c1ccc(Cl)cc1 [rimonabant]
OPC
  OPC differentiation into mature oligodendrocytes: do not induce but impair

## HGF: carrier free recombinant human HGF, used as a positive control
SVZ cells [2]
  number of primary neurospheres (control 100%): 121.0±13.14%
SVZ cells [3]
  number of secondary neurospheres (control 100%): 120.0±11.54%

## PVNFKWLSH (listed as Homo sapiens) [SEQ ID 4, variant of Hp peptide]
[4]
  periepididymal and visceral fat content compared to the control group: reduced

## RVDPVNFKFLSH (listed as Homo sapiens) [SEQ. ID. 3, N-terminally extended variant of Hp, Arg Val Asp Pro Val Asn Phe Lys Phe Leu Ser His]
CB1R
  activity at CB1R cannabinoid receptors: function as agonists

## VDPVNFKFLSH (listed as Homo sapiens) [SEQ. ID. 2, N-terminally extended variant of Hp, Val Asp Pro Val Asn Phe Lys Phe Leu Ser His]
CB1R
  activity at CB1R cannabinoid receptors: function as agonists
